# Test results taken from publication PMC3196665 (Chemical biology & drug design, 2011).
# Read-outs that look alike come from different tables or passages of the source.
# Key:
# EphA4 Fc = EphA4 Fc (Mus musculus, UniProt Q03137); experiment: ELISA: inhibition of ephrin-A5 AP binding to immobilized EphA4 Fc
# [1] = molecular target: EphA4 ligand-binding domain (Homo sapiens, UniProt P54764); experiment: 1H NMR of compound with increasing EphA4 ligand-binding domain; settings: 10 mM phosphate buffer, pH 6.5; unmodified compound
# Sequence of EphA4 ligand-binding domain (P54764 28-208): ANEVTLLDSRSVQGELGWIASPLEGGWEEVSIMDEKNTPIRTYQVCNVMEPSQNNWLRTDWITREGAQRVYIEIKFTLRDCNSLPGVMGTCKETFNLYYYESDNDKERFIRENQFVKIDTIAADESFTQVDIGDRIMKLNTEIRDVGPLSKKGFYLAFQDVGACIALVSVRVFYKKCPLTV
# EphA2 [2] = molecular target: T1, EphA2 (Homo sapiens, UniProt P29317); format: cell-based
# T1 sequence (P29317 24-976): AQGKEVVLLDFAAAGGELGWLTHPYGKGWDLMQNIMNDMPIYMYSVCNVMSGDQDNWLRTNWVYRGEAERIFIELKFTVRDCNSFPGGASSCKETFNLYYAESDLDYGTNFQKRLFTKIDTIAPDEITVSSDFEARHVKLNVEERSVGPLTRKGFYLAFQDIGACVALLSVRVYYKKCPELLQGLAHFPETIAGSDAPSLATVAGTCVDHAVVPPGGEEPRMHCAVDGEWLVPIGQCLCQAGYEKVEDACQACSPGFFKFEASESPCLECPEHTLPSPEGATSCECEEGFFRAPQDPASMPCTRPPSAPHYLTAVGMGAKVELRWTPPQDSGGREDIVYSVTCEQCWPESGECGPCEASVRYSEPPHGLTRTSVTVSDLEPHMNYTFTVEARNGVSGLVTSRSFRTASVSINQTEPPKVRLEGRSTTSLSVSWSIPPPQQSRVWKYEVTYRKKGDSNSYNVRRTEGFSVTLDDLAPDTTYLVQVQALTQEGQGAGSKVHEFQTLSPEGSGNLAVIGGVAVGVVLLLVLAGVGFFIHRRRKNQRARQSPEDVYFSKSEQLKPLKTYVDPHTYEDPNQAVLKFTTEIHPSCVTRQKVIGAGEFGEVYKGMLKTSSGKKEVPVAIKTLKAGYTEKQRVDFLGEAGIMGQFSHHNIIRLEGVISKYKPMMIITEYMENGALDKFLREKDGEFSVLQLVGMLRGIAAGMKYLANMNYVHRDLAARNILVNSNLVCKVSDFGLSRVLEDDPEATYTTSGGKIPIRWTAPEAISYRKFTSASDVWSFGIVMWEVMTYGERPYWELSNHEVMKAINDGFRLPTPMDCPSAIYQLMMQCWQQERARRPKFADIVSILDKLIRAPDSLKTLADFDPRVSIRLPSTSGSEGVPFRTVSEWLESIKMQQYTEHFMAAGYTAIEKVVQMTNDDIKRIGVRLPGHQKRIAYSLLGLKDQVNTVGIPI
# [3] = molecular target: EphA4 AP binding to ephrin-A and ephrin-B ligands (Homo sapiens, UniProt P54764); settings: ref [37]; cited from earlier work
# Sequence of EphA4 AP binding to ephrin-A and ephrin-B ligands (P54764 30-209 limits assumed): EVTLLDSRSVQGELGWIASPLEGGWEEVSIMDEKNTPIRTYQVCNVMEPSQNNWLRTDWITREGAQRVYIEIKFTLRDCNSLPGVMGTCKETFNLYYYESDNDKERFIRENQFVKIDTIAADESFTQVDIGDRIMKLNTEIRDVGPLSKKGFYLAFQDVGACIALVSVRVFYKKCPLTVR
# HUVE cells [4] = experiment: MTT assay, HUVE cell viability; format: cell-based; settings: 200 μM
# EphA2 [5] = molecular target: T1, EphA2; experiment: TNFα-induced EphA2 tyrosine phosphorylation in HUVE cells; format: cell-based; settings: 20 nM TNFα, 2 hours
# EphA2 [6] = test system: EphA2
# EphA3 = experiment: ELISA: ephrin-A5 AP binding to immobilized EphA3 Fc
# [7] = Stability of compound in DMSO, followed by ELISA IC50; format: physicochemical; settings: DMSO at ≤ 10 mM, room temperature, after 4 days
# EphA4 = EphA4 (Mus musculus, UniProt Q03137); experiment: Ephrin-induced EphA4 tyrosine phosphorylation in HT22 neuronal cells; format: cell-based; settings: ephrin-A5 Fc
# Sequence of EphA4 (Q03137 20-986): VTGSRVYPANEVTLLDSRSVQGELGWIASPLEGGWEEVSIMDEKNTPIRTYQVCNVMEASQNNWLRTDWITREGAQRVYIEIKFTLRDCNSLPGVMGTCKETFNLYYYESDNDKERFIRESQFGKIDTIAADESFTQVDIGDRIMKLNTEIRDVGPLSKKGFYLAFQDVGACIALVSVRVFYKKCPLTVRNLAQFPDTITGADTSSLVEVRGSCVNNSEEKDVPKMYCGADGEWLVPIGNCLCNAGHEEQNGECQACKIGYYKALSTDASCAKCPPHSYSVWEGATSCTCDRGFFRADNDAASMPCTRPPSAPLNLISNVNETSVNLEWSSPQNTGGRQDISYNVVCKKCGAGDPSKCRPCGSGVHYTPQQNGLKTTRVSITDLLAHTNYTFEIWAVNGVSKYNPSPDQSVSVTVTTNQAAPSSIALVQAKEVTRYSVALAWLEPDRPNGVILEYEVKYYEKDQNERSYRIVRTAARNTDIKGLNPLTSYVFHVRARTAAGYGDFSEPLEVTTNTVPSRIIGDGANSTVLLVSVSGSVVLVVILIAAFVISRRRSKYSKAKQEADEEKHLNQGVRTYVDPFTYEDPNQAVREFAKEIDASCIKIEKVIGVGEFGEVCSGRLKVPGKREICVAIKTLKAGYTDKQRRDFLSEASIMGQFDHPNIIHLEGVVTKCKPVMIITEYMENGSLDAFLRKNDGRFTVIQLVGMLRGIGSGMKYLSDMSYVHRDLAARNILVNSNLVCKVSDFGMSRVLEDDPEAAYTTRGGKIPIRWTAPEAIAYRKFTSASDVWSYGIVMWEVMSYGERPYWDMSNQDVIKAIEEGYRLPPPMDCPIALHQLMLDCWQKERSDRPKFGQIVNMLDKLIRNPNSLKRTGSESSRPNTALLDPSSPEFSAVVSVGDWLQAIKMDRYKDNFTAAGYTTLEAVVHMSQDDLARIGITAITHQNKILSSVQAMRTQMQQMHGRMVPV
# EphA5 = experiment: ELISA: ephrin-A5 AP binding to immobilized EphA5 Fc
# HUVE cells [8] = experiment: Capillary-like tube formation of HUVECs on Matrigel; format: cell-based; settings: 18 hours
# EphB4 = experiment: ELISA: ephrin-B2 AP binding to immobilized EphB4 Fc
# EphB3 = experiment: ELISA: ephrin-B2 AP binding to immobilized EphB3 Fc
# EphB6 = experiment: ELISA: ephrin-B2 AP binding to immobilized EphB6 Fc
# EphB1 = experiment: ELISA: ephrin-B2 AP binding to immobilized EphB1 Fc
# PC3 cells = experiment: PC3 cell retraction assay; format: cell-based
# EphA7 = experiment: ELISA: ephrin-A5 AP binding to immobilized EphA7 Fc
# EphA6 = experiment: ELISA: ephrin-A5 AP binding to immobilized EphA6 Fc
# EphB2 [9] = experiment: Ephrin-B2 Fc-induced EphB2 tyrosine phosphorylation in COS cells; format: cell-based
# EphA2 [10] = experiment: Ephrin-A1 Fc-induced EphA2 tyrosine phosphorylation in COS cells; format: cell-based
# EphB2 [11] = experiment: ELISA: ephrin-B2 AP binding to immobilized EphB2 Fc
# Eph receptors = settings: ref [36]; cited from earlier work
# Sequence of EphA4 Fc (Q03137 20-547): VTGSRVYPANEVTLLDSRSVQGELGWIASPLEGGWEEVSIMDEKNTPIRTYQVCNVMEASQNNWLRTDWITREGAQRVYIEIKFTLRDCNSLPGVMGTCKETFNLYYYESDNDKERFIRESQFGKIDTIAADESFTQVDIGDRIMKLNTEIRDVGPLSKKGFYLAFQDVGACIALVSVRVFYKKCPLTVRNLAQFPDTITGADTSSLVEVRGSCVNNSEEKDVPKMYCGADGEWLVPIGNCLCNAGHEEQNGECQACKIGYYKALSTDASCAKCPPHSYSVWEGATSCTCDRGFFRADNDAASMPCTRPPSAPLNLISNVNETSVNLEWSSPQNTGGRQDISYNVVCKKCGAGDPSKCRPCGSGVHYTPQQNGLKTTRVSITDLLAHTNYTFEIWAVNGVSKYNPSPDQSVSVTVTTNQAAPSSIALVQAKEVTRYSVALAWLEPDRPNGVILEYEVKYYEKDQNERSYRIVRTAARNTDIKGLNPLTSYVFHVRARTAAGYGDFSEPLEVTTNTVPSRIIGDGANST
compound,measurement,setting,value
"Cc1ccc(C)n1-c1ccc(C(=O)O)c(O)c1 [Compound 1, reference compound]",Change of activity in ephrin-A5-EphA4 ELISA on storage,EphA4 Fc; dry form exposed to air at room temperature,becomes progressively more active
same,Inhibition of ephrin-A5 AP binding to EphA4 Fc,EphA4 Fc; newly synthesized preparation,did not show detectable inhibition
same,Inhibition of ephrin-A5 AP binding to EphA4 Fc,EphA4 Fc; purchased preparation,activity comparable to that previously reported
same,Binding to EphA4 (resonance peak shifts of compound protons),[1],"some, albeit weak, ability to bind to EphA4"
same,Inhibition of EphA2 phosphorylation in cells stimulated with ephrin-A1 Fc,"EphA2 [2]; newly synthesized preparation, PC3 cells",did not show detectable inhibition
same,Inhibition of EphA2 phosphorylation in cells stimulated with ephrin-A1 Fc,"EphA2 [2]; purchased preparation, PC3 cells",activity comparable to that previously reported
same,Inhibition of EphA4 AP binding to ephrin-A4 and ephrin-B2,[3],do not efficiently inhibit
Cc1ccc(C)n1-c1ccc(O)c(C(=O)O)c1 [Compound 2],Inhibition of EphA4 AP binding to ephrin-A4 and ephrin-B2,[3],do not efficiently inhibit
"COC(=O)/C=C/c1ccc(-c2ccc(O)c(C(=O)OC)c2)o1 [Compound 76A5, (E)-methyl 2-hydroxy-5-(5-(3-methoxy-3-oxoprop-1-en-1-yl)furan-2-yl)benzoate]",Inhibitory activity on ephrin-A5 AP binding to EphA4 Fc,EphA4 Fc,did not show detectable inhibitory activity
"O=Cc1ccc(-c2ccc(O)c(C(=O)O)c2)o1 [Compound 76B8, 5-(5-formylfuran-2-yl)-2-hydroxybenzoic acid]",Inhibitory activity on ephrin-A5 AP binding to EphA4 Fc,EphA4 Fc,did not show detectable inhibitory activity
O=C(/C=C/c1ccc(-c2ccc(O)c(C(=O)O)c2)o1)/C=C/c1ccc(-c2ccc(O)c(C(=O)O)c2)o1 [Compound 76D10],HUVE cell viability (MTT),HUVE cells [4]; three days,minimally affected
same,HUVE cell viability (MTT),HUVE cells [4]; up to one day,not affected
same,Inhibition of EphA2 tyrosine phosphorylation in response to TNFα,EphA2 [5],inhibits EphA2 tyrosine phosphorylation
same,Selectivity among EphA and EphB receptors examined,EphA4 Fc,preferentially inhibits
same,Time to binding equilibrium after addition of ephrin-A5 AP with compound,EphA4 Fc,≤ 3 h
same,Inhibitory activity in the presence of BSA,EphA4 Fc; 0.1 mg/ml BSA,lost
same,Inhibitory activity in the presence of collagen,EphA4 Fc; 0.1 mg/ml collagen,not affected
same,Reversibility of binding to EphA4 in ELISA,"EphA4 Fc; 3 hour incubation, wash, 24 hours in binding buffer",does not appear to be reversible
same,Mode of inhibition (Bmax and KD of ephrin-A5 AP binding curves),EphA4 Fc; increasing 76D10 concentrations,consistent with competitive inhibition
same,Selectivity among EphA and EphB receptors examined,EphA2 [6],preferentially inhibits
same,Inhibition of ephrin binding to EphA3,EphA3,much lower to undetectable inhibitory activity
same,Increase in IC50 values on storage in DMSO,[7],10 fold
same,Inhibition of EphA4 tyrosine phosphorylation,EphA4,inhibits EphA4 tyrosine phosphorylation
same,Inhibition of ephrin-A5 binding to EphA5,EphA5,inhibits with substantial potency
same,Effect of BSA in culture medium on compound activity,"EphA2 [2]; 0.1 mg/mL BSA, COS and PC3 cells",inhibited the activity
same,Inhibition of EphA2 tyrosine phosphorylation,"EphA2 [2]; PC3 cells, ephrin-A1 Fc",inhibits tyrosine phosphorylation
same,Inhibition of capillary-like tube formation,HUVE cells [8],inhibits capillary-like tube formation
same,Inhibition of ephrin-B2 binding to EphB4,EphB4,inhibits with substantial potency
same,Inhibition of ephrin binding to EphB3,EphB3,much lower to undetectable inhibitory activity
same,Inhibition of ephrin-B2 binding to EphB6,EphB6,inhibits with substantial potency
same,Inhibition of ephrin binding to EphB1,EphB1,much lower to undetectable inhibitory activity
same,Effect on cell morphology in the absence of ephrin,PC3 cells,does not affect cell morphology
same,Reversal of the effect of ephrin-A1 on cell area,PC3 cells; 25 μM,partially
same,Reversal of the effect of ephrin-A1 on cell area,PC3 cells; 50 μM,partially
same,Reversal of the effect of ephrin-A1 on cell area,PC3 cells; 100 μM,reverted completely
same,Inhibition of ephrin-A1 Fc-induced cell retraction,PC3 cells; concentrations between 25 and 100 μM,significantly counteracts these effects
same,Inhibition of ephrin-A5 binding to EphA7,EphA7,inhibits with substantial potency
same,Inhibition of ephrin-A5 binding to EphA6,EphA6,inhibits with substantial potency
same,Inhibition of EphB2 tyrosine phosphorylation,EphB2 [9],not EphB2 tyrosine phosphorylation
same,Inhibition of EphA2 tyrosine phosphorylation,EphA2 [10],inhibits tyrosine phosphorylation
same,Inhibition of ephrin binding to EphB2,EphB2 [11],much lower to undetectable inhibitory activity
C[C@H](CCC(=O)O)[C@H]1CC[C@H]2[C@@H]3CC[C@@H]4C[C@H](O)CC[C@]4(C)[C@H]3CC[C@]12C [lithocholic acid],Inhibition of Eph receptors,Eph receptors,inhibit with similar low potency all Eph receptors examined
